What was measured:
[1] = target: T1, human Cystic Fibrosis Transmembrane Conductance Regulator (CFTR) harboring the ΔF508 mutation (Homo sapiens, UniProt P13569, DEL508-508); experiment: H441 cell ΔF508-CFTR-HRP cell surface assay (Emax and EC50); format: cell-based; conditions: for Emax: NCI-H441, NA = Not active
T1 construct: expressed in transfected cells; host or cells: H441 carcinoma line (G418-selected)
Procedure, shortened: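 H441 and 41o- bronchial epithelial cells expressing ΔF508-CFTR with an extracellular-loop-4 HRP tag were treated with a 15-point compound series (24.5–0.001 μM) for two nights, H441 at 27° C, 41o- at 37° C with 0.0005 mg/ml doxycycline. Surface HRP luminescence read; % of maximum VX809 signal and EC50 derived.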

[2] = target: T2, CFTR-mediated transepithelial chloride transport in primary human bronchial epithelial cells from a ΔF508 homozygous CF donor (Homo sapiens, UniProt P13569, DEL508-508); experiment: TECC24 recording of CFTR-mediated transepithelial chloride transport in CF-HBE cells (AUC fold over DMSO); format: cell-based; conditions: test agent 10 μM, 48 hours incubation, AUC of forskolin-stimulated IEQ relative to DMSO
T2 construct: Primary human bronchial epithelial cells from a ΔF508 homozygous CF donor; host or cells: primary CF-HBE cells, ΔF508 homozygous donor
Procedure, shortened: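 Equivalent Cl⁻ current was derived from transepithelial voltage and resistance, and its AUC from forskolin (10 μM) to CFTRinh-172 (20 μM) was divided by the DMSO AUC. Benzamil 10 μM blocked ENaC. Cells were ΔF508-homozygous primary bronchial epithelia pretreated 48 h at 36.5 °C in IL-13 medium.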

T2 sequence (P13569 with tags, fused parts or gaps DEL508-508): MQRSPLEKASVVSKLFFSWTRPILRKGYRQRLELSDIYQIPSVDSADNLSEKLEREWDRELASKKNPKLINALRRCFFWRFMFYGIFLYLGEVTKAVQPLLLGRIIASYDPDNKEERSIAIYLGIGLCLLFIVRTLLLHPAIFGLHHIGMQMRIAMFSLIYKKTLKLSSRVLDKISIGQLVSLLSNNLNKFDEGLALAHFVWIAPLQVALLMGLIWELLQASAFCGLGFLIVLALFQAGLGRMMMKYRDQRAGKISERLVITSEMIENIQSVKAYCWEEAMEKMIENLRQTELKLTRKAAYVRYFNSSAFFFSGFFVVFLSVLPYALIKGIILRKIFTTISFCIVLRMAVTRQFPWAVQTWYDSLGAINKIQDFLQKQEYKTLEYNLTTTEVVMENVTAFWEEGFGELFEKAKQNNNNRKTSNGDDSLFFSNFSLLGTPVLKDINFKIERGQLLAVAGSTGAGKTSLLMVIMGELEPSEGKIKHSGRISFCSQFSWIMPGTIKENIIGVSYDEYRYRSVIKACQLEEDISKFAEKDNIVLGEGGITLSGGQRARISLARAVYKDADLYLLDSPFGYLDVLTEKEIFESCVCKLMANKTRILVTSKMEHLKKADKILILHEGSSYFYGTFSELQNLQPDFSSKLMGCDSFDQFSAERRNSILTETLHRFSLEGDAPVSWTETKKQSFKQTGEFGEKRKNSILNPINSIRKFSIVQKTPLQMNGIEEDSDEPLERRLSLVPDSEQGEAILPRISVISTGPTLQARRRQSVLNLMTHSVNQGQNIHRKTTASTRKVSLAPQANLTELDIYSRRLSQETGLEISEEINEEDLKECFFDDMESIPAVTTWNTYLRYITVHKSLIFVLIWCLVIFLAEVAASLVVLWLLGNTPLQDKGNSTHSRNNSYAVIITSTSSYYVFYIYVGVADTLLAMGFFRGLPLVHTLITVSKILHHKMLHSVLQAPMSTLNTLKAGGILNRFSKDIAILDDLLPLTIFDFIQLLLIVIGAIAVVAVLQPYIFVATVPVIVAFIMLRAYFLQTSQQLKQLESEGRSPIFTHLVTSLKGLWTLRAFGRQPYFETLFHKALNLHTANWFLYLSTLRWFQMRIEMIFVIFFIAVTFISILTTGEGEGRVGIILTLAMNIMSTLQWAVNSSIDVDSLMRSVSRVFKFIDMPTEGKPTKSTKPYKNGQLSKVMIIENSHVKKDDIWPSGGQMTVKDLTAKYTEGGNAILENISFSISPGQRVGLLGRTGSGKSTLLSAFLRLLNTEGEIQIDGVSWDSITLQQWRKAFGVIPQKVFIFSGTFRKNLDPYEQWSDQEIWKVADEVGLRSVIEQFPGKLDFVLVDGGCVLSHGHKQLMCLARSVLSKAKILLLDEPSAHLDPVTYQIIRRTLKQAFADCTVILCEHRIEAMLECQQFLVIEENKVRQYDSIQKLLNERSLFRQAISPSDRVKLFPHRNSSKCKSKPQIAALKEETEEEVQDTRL
T1 sequence (P13569 with tags, fused parts or gaps DEL508-508): as above

EC50 [1] [nM] | Emax [1] [%] | TECC24 AUC fold over DMSO @10 μM [2] | Structure (SMILES)
600 | 96.2 | C (“C” refers to AUC @10 uM <4) | CC(C)(C)[C@@H](NC(=O)c1ccc2ccc(C(F)F)cc2c1OCc1ccc(C(F)(F)F)cc1)C(=O)O [Example 265, (2R)-2-[[7-(difluoromethyl)-1-[[4-(trifluoromethyl)phenyl]methoxy]naphthalene-2-carbonyl]amino]-3,3-dimethyl-butanoic Acid]
500 | 158 | A (“A” refers to AUC @10 uM >6) | O=C(N[C@H](C(=O)O)C1CCCCC1)c1ccc2ccccc2c1OCc1ccc(C(F)(F)F)cc1 [Example 128, (S)-2-cyclohexyl-2-(1-((4-(trifluoromethyl)benzyl)oxy)-2-naphthamido)acetic Acid]
12200 | 97 | A (“A” refers to AUC @10 uM >6) | CCC(C)(C)[C@H](NC(=O)c1ccc2cc(C)ccc2c1OCc1ccc(C(F)(F)F)cc1)C(=O)O [Example 225, (2S)-3,3-dimethyl-2-[[6-methyl-1-[[4-(trifluoromethyl)phenyl]methoxy]naphthalene-2-carbonyl]amino]pentanoic Acid]
1900 | 108 | C (“C” refers to AUC @10 uM <4) | CC(C)(C)[C@H](NC(=O)c1ccc2cc(O)ccc2c1OCc1ccc(C(F)(F)F)cc1)C(=O)O [Example 59, (S)-2-(6-hydroxy-1-((4-(trifluoromethyl)benzyl)oxy)-2-naphthamido)-3,3-dimethylbutanoic Acid]
15900 | 65.8 | C (“C” refers to AUC @10 uM <4) | O=C(N[C@@H](Cc1ccc(C(F)(F)F)cc1)C(=O)O)c1ccc2cc(F)ccc2c1OCc1nc2ccccc2s1 [Example 217, (S)-2-(1-(benzo[d]thiazol-2-ylmethoxy)-6-fluoro-2-naphthamido)-3-(4-(trifluoromethyl)phenyl)propanoic Acid]
100 | 296 | A (“A” refers to AUC @10 uM >6) | CC(C)(C)[C@H](NC(=O)c1ccc2ccc(Br)cc2c1OCc1ccc(C(F)(F)F)cc1)C(=O)O [Example 256, (2S)-2-[[7-bromo-1-[[4-(trifluoromethyl)phenyl]methoxy]naphthalene-2-carbonyl]amino]-3,3-dimethyl-butanoic Acid]
700 | 285 | A (“A” refers to AUC @10 uM >6) | Cc1ccc2ccc(C(=O)N[C@H](C(=O)O)C(C)(C)CF)c(OCC3CCCCC3)c2c1 [Example 282, (S)-2-(1-(cyclohexylmethoxy)-7-methyl-2-naphthamido)-4-fluoro-3,3-dimethylbutanoic Acid]
200 | 313 | A (“A” refers to AUC @10 uM >6) | CCC(C)(C)[C@H](NC(=O)c1ccc2ccc(Cl)cc2c1OCc1ccc(C(F)(F)F)cc1)C(=O)O [Example 283, (S)-2-(7-chloro-1-((4-(trifluoromethyl)benzyl)oxy)-2-naphthamido)-3,3-dimethylpentanoic Acid]
7300 | 91.4 | C (“C” refers to AUC @10 uM <4) | CC(C)(C)[C@H](NC(=O)c1ccc2cc(N)ccc2c1OCc1ccc(C(F)(F)F)cc1)C(=O)O [Example 52, (S)-2-(6-amino-1-((4-(trifluoromethyl)benzyl)oxy)-2-naphthamido)-3,3-dimethylbutanoic Acid]
600 | 106 | C (“C” refers to AUC @10 uM <4) | CC(C)(C)[C@H](NC(=O)c1cc(F)c2ccccc2c1OCc1ccc(C(F)(F)F)cc1)C(=O)O [Example 64, (S)-2-(4-fluoro-1-((4-(trifluoromethyl)benzyl)oxy)-2-naphthamido)-3,3-dimethylbutanoic Acid]
500 | 137 | A (“A” refers to AUC @10 uM >6) | CC1([C@H](NC(=O)c2ccc3ccc(C(F)(F)F)cc3c2OCc2ccc(OC(F)(F)F)cc2)C(=O)O)CC1 [Example 297, (S)-2-(1-methylcyclopropyl)-2-(1-((4-(trifluoromethoxy)benzyl)oxy)-7-(trifluoromethyl)-2-naphthamido)acetic Acid]
400 | 57.8 | C (“C” refers to AUC @10 uM <4) | CC1(C(NC(=O)c2ccc3cc(F)ccc3c2OCc2ccc(S(F)(F)(F)(F)F)cc2)C(=O)O)CCCCC1 (centres unmarked) [Example 50, 2-(6-fluoro-1-((4-(pentafluoro-16-sulfanyl)benzyl)oxy)-2-naphthamido)-2-(1-methylcyclohexyl)acetic Acid]
800 | 37.1 | A (“A” refers to AUC @10 uM >6) | O=C(N[C@H](C(=O)O)C1CCCC1)c1ccc2cc(F)ccc2c1OCc1ccc(OC(F)(F)F)cc1 [Example 119, (S)-2-cyclopentyl-2-(6-fluoro-1-((4-(trifluoromethoxy)benzyl)oxy)-2-naphthamido)acetic Acid]
100 | 248 | A (“A” refers to AUC @10 uM >6) | CC1([C@H](NC(=O)c2ccc3ccc(Cl)cc3c2OCc2ccc(C(F)(F)F)cc2)C(=O)O)CCCC1 [Example 302, (S)-2-(7-chloro-1-((4-(trifluoromethyl)benzyl)oxy)-2-naphthamido)-2-(1-methylcyclopentyl)acetic Acid]
400 | 57.7 | C (“C” refers to AUC @10 uM <4) | CC1(C(NC(=O)c2ccc3cc(F)ccc3c2OCc2ccc(SC(F)(F)F)cc2)C(=O)O)CCCCC1 (centres unmarked) [Example 69, 2-(6-fluoro-1-((4-((trifluoromethyl)thio)benzyl)oxy)-2-naphthamido)-2-(1-methylcyclohexyl)acetic Acid]
100 | 229 | A (“A” refers to AUC @10 uM >6) | CCC(C)(C)[C@H](NC(=O)c1ccc2ccc(C(F)(F)F)cc2c1OCc1ccc(C(F)(F)F)cc1)C(=O)O [Example 295, (S)-3,3-dimethyl-2-(7-(trifluoromethyl)-1-((4-(trifluoromethyl)benzyl)oxy)-2-naphthamido)pentanoic Acid]
400 | 138 | B (“B” refers to AUC @10 uM between 4-6) | CC(C)(SC1CCCC1)[C@H](NC(=O)c1ccc2ccccc2c1OCc1ccc(SC(F)(F)F)cc1)C(=O)O [Example 169, (R)-3-(cyclopentylthio)-3-methyl-2-(1-((4-((trifluoromethyl)thio)benzyl)oxy)-2-naphthamido)butanoic Acid]
4100 | 135 | C (“C” refers to AUC @10 uM <4) | CC(C)(C)C[C@H](NC(=O)c1ccc2ccccc2c1OCC1CCCCC1)C(=O)O [Example 201, (S)-2-(1-(cyclohexylmethoxy)-2-naphthamido)-4,4-dimethylpentanoic Acid]
600 | 86.4 | A (“A” refers to AUC @10 uM >6) | CC(C)(C)[C@H](NC(=O)c1ccc2ccccc2c1OCc1ccc(SC(F)(F)F)cc1)C(=O)O [Example 35, (S)-3,3-dimethyl-2-(1-((4-((trifluoromethyl)thio)benzyl)oxy)-2-naphthamido)butanoic Acid]
100 | 236 | A (“A” refers to AUC @10 uM >6) | CC(C)(C)[C@H](NC(=O)c1ccc2ccc(F)cc2c1OCc1ccc(C(F)(F)F)cc1)C(=O)O [Example 241, (S)-2-(7-fluoro-1-((4-(trifluoromethyl)benzyl)oxy)-2-naphthamido)-3,3-dimethylbutanoic Acid]
100 | 250 | A (“A” refers to AUC @10 uM >6) | Cc1cc(F)c2ccc(C(=O)N[C@H](C(=O)O)C(C)(C)C)c(OCc3ccc(C(F)(F)F)cc3)c2c1 [Example 263, (2S)-2-[[5-fluoro-7-methyl-1-[[4-(trifluoromethyl)phenyl]methoxy]naphthalene-2-carbonyl]amino]-3,3-dimethyl-butanoic Acid]
500 | 159 | A (“A” refers to AUC @10 uM >6) | CC(C)(C)[C@H](NC(=O)c1ccc2ccc(-c3cscn3)cc2c1OCc1ccc(C(F)(F)F)cc1)C(=O)O [Example 243, (2S)-3,3-dimethyl-2-[[7-thiazol-4-yl-1-[[4-(trifluoromethyl)phenyl]methoxy]naphthalene-2-carbonyl]amino]butanoic Acid]
– | 4.7 | C (“C” refers to AUC @10 uM <4) | C[C@@H](OCc1ccccc1)[C@H](NC(=O)c1ccc2ccccc2c1OCc1ccc(Cl)c(Cl)c1)C(=O)O (stereo in doubt) [Example 206]

Structure (SMILES) | EC50 [1] [nM] | Emax [1] [%] | TECC24 AUC fold over DMSO @10 μM [2]
C[C@@H](OC(C)(C)C)C(NC(=O)c1ccc2ccccc2c1OCc1ccc(C(F)(F)F)cc1)C(=O)O (stereo partly drawn) [Example 133, (3R)-3-(tert-butoxy)-2-(1-((4-(trifluoromethyl)benzyl)oxy)-2-naphthamido)butanoic Acid] | 1200 | 151 | A (“A” refers to AUC @10 uM >6)

From patent publication US12630498B2 (Genzyme Corporation, priority 2019, dated 2026)
